Tests used:
Type in all cases: functional
HT-29 = experiment: Cytotoxicity against Homo sapiens (human) HT-29 cells after 48 hr by sulforhodamine B assay; details: HT-29, 48 h
NCI-H460 [1] = experiment: Cytotoxicity against Homo sapiens (human) NCI-H460 cells assessed as cell growth at 10^-4 M after 48 hr by Alamar blue assay; details: NCI-H460, 48 h, read-out: Activity
OVCAR-4 = experiment: Cytotoxicity against Homo sapiens (human) OVCAR4 cells after 48 hr by sulforhodamine B assay; details: OVCAR-4, 48 h
MCF7 [2] = experiment: Cytotoxicity against Homo sapiens (human) MCF7 cells assessed as cell growth at 10^-4 M after 48 hr by Alamar blue assay; details: MCF7, 48 h, read-out: Activity
IGROV-1 = experiment: Cytotoxicity against Homo sapiens (human) IGROV1 cells after 48 hr by sulforhodamine B assay; details: IGROV-1, 48 h
MCF7 [3] = experiment: Cytotoxicity against Homo sapiens (human) MCF7 cells after 48 hr by sulforhodamine B assay; details: MCF7, 48 h
UO-31 = experiment: Cytotoxicity against Homo sapiens (human) UO31 cells after 48 hr by sulforhodamine B assay; details: UO-31, 48 h
T47D = experiment: Cytotoxicity against Homo sapiens (human) T47D cells after 48 hr by sulforhodamine B assay
U-251 = experiment: Cytotoxicity against Homo sapiens (human) U251 cells after 48 hr by sulforhodamine B assay; details: U-251, 48 h
PC-3 = experiment: Cytotoxicity against Homo sapiens (human) PC3 cells after 48 hr by sulforhodamine B assay; details: PC-3, 48 h
HCT-15 = experiment: Cytotoxicity against Homo sapiens (human) HCT15 cells after 48 hr by sulforhodamine B assay; details: HCT-15, 48 h; for CC50: read-out: LC50 (the source's name)
A498 = experiment: Cytotoxicity against Homo sapiens (human) A498 cells after 48 hr by sulforhodamine B assay; details: A498, 48 h
LOX IMVI = experiment: Cytotoxicity against Homo sapiens (human) LOXIMVI cells after 48 hr by sulforhodamine B assay
MDA-MB-435 = experiment: Cytotoxicity against Homo sapiens (human) MDA-MB-435 cells after 48 hr by sulforhodamine B assay; details: MDA-MB-435, 48 h
SK-MEL-28 = experiment: Cytotoxicity against Homo sapiens (human) SK-MEL-28 cells after 48 hr by sulforhodamine B assay; details: SK-MEL-28, 48 h
NCI-H23 = experiment: Cytotoxicity against Homo sapiens (human) NCI-H23 cells after 48 hr by sulforhodamine B assay; details: NCI-H23, 48 h; for CC50: read-out: LC50 (the source's name)
M14 = experiment: Cytotoxicity against Homo sapiens (human) M14 cells after 48 hr by sulforhodamine B assay; details: M14, 48 h
UACC-257 = experiment: Cytotoxicity against Homo sapiens (human) UACC257 cells after 48 hr by sulforhodamine B assay; details: UACC-257, 48 h
A549 = experiment: Cytotoxicity against Homo sapiens (human) A549 cells after 48 hr by sulforhodamine B assay; details: A549, 48 h; for CC50: read-out: LC50 (the source's name)
Hs-578T = experiment: Cytotoxicity against Homo sapiens (human) Hs 578T cells after 48 hr by sulforhodamine B assay
SK-MEL-5 = experiment: Cytotoxicity against Homo sapiens (human) SK-MEL-5 cells after 48 hr by sulforhodamine B assay; details: SK-MEL-5, 48 h
KM12 = experiment: Cytotoxicity against Homo sapiens (human) KM12 cells after 48 hr by sulforhodamine B assay; details: KM12, 48 h; for CC50: read-out: LC50 (the source's name)
NCI-H226 = experiment: Cytotoxicity against Homo sapiens (human) NCI-H226 cells after 48 hr by sulforhodamine B assay; details: NCI-H226, 48 h; for CC50: read-out: LC50 (the source's name)
NCI-H460 [4] = experiment: Cytotoxicity against Homo sapiens (human) NCI-H460 cells after 48 hr by sulforhodamine B assay; details: NCI-H460, 48 h; for CC50: read-out: LC50 (the source's name)
DU-145 = experiment: Cytotoxicity against Homo sapiens (human) DU145 cells after 48 hr by sulforhodamine B assay; details: DU-145, 48 h
TK-10 = experiment: Cytotoxicity against Homo sapiens (human) TK10 cells after 48 hr by sulforhodamine B assay; details: TK-10, 48 h; for CC50: read-out: LC50 (the source's name)
RPMI-8226 = experiment: Cytotoxicity against Homo sapiens (human) RPMI8226 cells after 48 hr by sulforhodamine B assay; details: RPMI-8226, 48 h; for CC50: read-out: LC50 (the source's name)
[5] = Cytotoxicity against Homo sapiens (human) NCI-ADR-RES cells after 48 hr by sulforhodamine B assay
SN12C = experiment: Cytotoxicity against Homo sapiens (human) SN12C cells after 48 hr by sulforhodamine B assay
K562 = experiment: Cytotoxicity against Homo sapiens (human) K562 cells after 48 hr by sulforhodamine B assay; details: K562, 48 h; for CC50: read-out: LC50 (the source's name)
HCC 2998 = experiment: Cytotoxicity against Homo sapiens (human) HCC2998 cells after 48 hr by sulforhodamine B assay; details: HCC 2998, 48 h; for CC50: read-out: LC50 (the source's name)
HOP-92 = experiment: Cytotoxicity against Homo sapiens (human) HOP92 cells after 48 hr by sulforhodamine B assay; details: HOP-92, 48 h
[6] = read-out: LC50 (the source's name)

ClCc1ccc(Cn2cnc3nc(Cl)nc(Cl)c32)cc1
GI50 (HT-29): 3.54 µM
TGI (HT-29): > 100 µM
CC50 (HT-29; [6]): > 100 µM
growth at 100 µM (NCI-H460 [1]): 0%
GI50 (OVCAR-4): 2.08 µM
TGI (OVCAR-4): 4.16 µM
growth at 100 µM (MCF7 [2]): 1%
GI50 (IGROV-1): 1.41 µM
LC50 (IGROV-1): 5.75 µM
TGI (IGROV-1): 2.81 µM
GI50 (MCF7 [3]): 4.16 µM
LC50 (concentration killing 50% of cells) (MCF7 [3]): 83.2 µM
TGI (MCF7 [3]): 17 µM
GI50 (UO-31): 1.44 µM
LC50 (concentration causing 50% net cell kill) (UO-31): 5.62 µM
TGI (UO-31): 2.88 µM
GI50 (T47D): 10.2 µM
LC50 (T47D): > 100 µM
TGI (T47D): 46.8 µM
GI50 (U-251): 1.77 µM
LC50 (concentration killing 50% of cells) (U-251): 5.75 µM
TGI (U-251): 3.23 µM
GI50 (PC-3): 17.8 µM
LC50 (concentration causing 50% cell kill) (PC-3): 75.9 µM
TGI (PC-3): 37.1 µM
GI50 (HCT-15): 1.81 µM
TGI (HCT-15): 3.54 µM
CC50 (HCT-15): 6.76 µM
GI50 (A498): 11.2 µM
LC50 (lethal concentration, 50% cell kill) (A498): 49 µM
TGI (A498): 23.4 µM
GI50 (LOX IMVI): 1.62 µM
LC50 (LOX IMVI): 6.45 µM
TGI (LOX IMVI): 3.23 µM
GI50 (MDA-MB-435): 1.62 µM
LC50 (MDA-MB-435): 5.75 µM
TGI (MDA-MB-435): 3.01 µM
GI50 (SK-MEL-28): 2.18 µM
LC50 (concentration killing 50% of cells) (SK-MEL-28): > 100 µM
TGI (SK-MEL-28): 5.12 µM
GI50 (NCI-H23): 2.34 µM
TGI (NCI-H23): 4.57 µM
CC50 (NCI-H23): 8.91 µM
GI50 (M14): 1.44 µM
LC50 (M14): 6.91 µM
TGI (M14): 3.16 µM
GI50 (UACC-257): 2.23 µM
LC50 (concentration killing 50% of cells) (UACC-257): 34.7 µM
TGI (UACC-257): 5.49 µM
GI50 (A549): 2.13 µM
TGI (A549): 4.07 µM
CC50 (A549): 7.94 µM
GI50 (Hs-578T): 19.1 µM
LC50 (Hs-578T): > 100 µM
TGI (Hs-578T): 44.7 µM
GI50 (SK-MEL-5): 2.45 µM
LC50 (SK-MEL-5): 31.6 µM
TGI (SK-MEL-5): 9.12 µM
GI50 (KM12): 0.26 µM
TGI (KM12): 0.67 µM
CC50 (KM12): 2.45 µM
GI50 (NCI-H226): 1.23 µM
TGI (NCI-H226): 3.89 µM
CC50 (NCI-H226): 15.5 µM
GI50 (NCI-H460 [4]): 15.5 µM
TGI (NCI-H460 [4]): 35.5 µM
CC50 (NCI-H460 [4]): 79.4 µM
GI50 (DU-145): 1.81 µM
LC50 (DU-145): 6.6 µM
TGI (DU-145): 3.46 µM
GI50 (TK-10): 0.12 µM
TGI (TK-10): 0.29 µM
CC50 (TK-10): 0.72 µM
GI50 (RPMI-8226): 1.65 µM
TGI (RPMI-8226): 28.2 µM
CC50 (RPMI-8226): 97.7 µM
GI50 [5]: 2.08 µM
TGI [5]: 4.46 µM
GI50 (SN12C): 1.86 µM
LC50 (50% lethal concentration) (SN12C): 6.6 µM
TGI (SN12C): 3.46 µM
GI50 (K562): 3.31 µM
TGI (K562): > 100 µM
CC50 (K562): > 100 µM
GI50 (HCC 2998): 2.04 µM
TGI (HCC 2998): 3.8 µM
CC50 (HCC 2998): 7.07 µM

ClCc1ccc(Cn2cnc3c(Cl)ncnc32)cc1
growth at 100 µM (NCI-H460 [1]): 0%
GI50 (OVCAR-4): 2.45 µM
LC50 (concentration killing 50% of cells) (OVCAR-4): > 100 µM
TGI (OVCAR-4): 6.6 µM
growth at 100 µM (MCF7 [2]): 7%
GI50 (IGROV-1): 3.16 µM
LC50 (IGROV-1): > 100 µM
TGI (IGROV-1): 25.1 µM
GI50 (MCF7 [3]): 0.41 µM
LC50 (concentration killing 50% of cells) (MCF7 [3]): > 100 µM
TGI (MCF7 [3]): 77.6 µM
GI50 (UO-31): 2.08 µM
LC50 (concentration causing 50% net cell kill) (UO-31): > 100 µM
TGI (UO-31): 4.57 µM
GI50 (U-251): 1.25 µM
LC50 (concentration killing 50% of cells) (U-251): 7.41 µM
TGI (U-251): 3.01 µM
GI50 (PC-3): 4.78 µM
LC50 (concentration causing 50% cell kill) (PC-3): > 100 µM
TGI (PC-3): 72.4 µM
GI50 (HCT-15): 1.95 µM
TGI (HCT-15): 12.6 µM
CC50 (HCT-15): 63.1 µM
GI50 (A498): 12.9 µM
LC50 (lethal concentration, 50% cell kill) (A498): 57.5 µM
TGI (A498): 26.9 µM
GI50 (LOX IMVI): 1 µM
LC50 (LOX IMVI): 13.5 µM
TGI (LOX IMVI): 3.46 µM
GI50 (MDA-MB-435): 1.62 µM
LC50 (MDA-MB-435): 15.8 µM
TGI (MDA-MB-435): 4.36 µM
GI50 (SK-MEL-28): 7.94 µM
LC50 (concentration killing 50% of cells) (SK-MEL-28): > 100 µM
TGI (SK-MEL-28): 30.9 µM
GI50 (NCI-H23): 0.66 µM
TGI (NCI-H23): 2.45 µM
CC50 (NCI-H23): 7.76 µM
GI50 (M14): 1.28 µM
LC50 (M14): 9.12 µM
TGI (M14): 3.46 µM
GI50 (HOP-92): 6.02 µM
TGI (HOP-92): 66.1 µM
CC50 (HOP-92; [6]): > 100 µM
GI50 (UACC-257): 7.41 µM
LC50 (concentration killing 50% of cells) (UACC-257): 97.7 µM
TGI (UACC-257): 28.8 µM
GI50 (A549): 1.38 µM
TGI (A549): 18.2 µM
CC50 (A549): 51.3 µM
GI50 (Hs-578T): 10.2 µM
LC50 (Hs-578T): > 100 µM
TGI (Hs-578T): 38.9 µM
GI50 (SK-MEL-5): 3.23 µM
LC50 (SK-MEL-5): 74.1 µM
TGI (SK-MEL-5): 20.9 µM
GI50 (KM12): 2.14 µM
TGI (KM12): 10.2 µM
CC50 (KM12): 95.5 µM
GI50 (NCI-H226): 1.58 µM
TGI (NCI-H226): 7.41 µM
CC50 (NCI-H226): 49 µM
GI50 (NCI-H460 [4]): 0.05 µM
TGI (NCI-H460 [4]): 1.82 µM
CC50 (NCI-H460 [4]): 26.9 µM
GI50 (DU-145): 1.31 µM
LC50 (DU-145): 36.3 µM
TGI (DU-145): 11.8 µM
GI50 (TK-10): 1.09 µM
TGI (TK-10): 4.67 µM
CC50 (TK-10): 22.9 µM
GI50 (RPMI-8226): 2.13 µM
TGI (RPMI-8226): 9.34 µM
CC50 (RPMI-8226): > 100 µM
GI50 [5]: 1.51 µM
LC50 (concentration killing 50% of cells) [5]: 38.9 µM
TGI [5]: 5.49 µM
GI50 (SN12C): 1.02 µM
LC50 (50% lethal concentration) (SN12C): 5.37 µM
TGI (SN12C): 2.34 µM
GI50 (K562): 2.91 µM
TGI (K562): > 100 µM
CC50 (K562): > 100 µM
GI50 (HCC 2998): 0.66 µM
TGI (HCC 2998): 2.04 µM
CC50 (HCC 2998): 5.12 µM

From ChEMBL document CHEMBL3044672, “N9- and N7-(Chloromethyl Phenymethyl)Chloropurine Derivatives from , '-Dichloroxylenes: Synthesis and Anticancer Activity” (2005)
